Data published in patent publication US20240366728A1, “Treatment of Diabetes Mellitus” (Carmot Therapeutics Inc., priority 2023, published 2024).

Columns and labels:
mouse GLP-1R [1] = biological target: T1, mouse GLP-1R (Mus musculus, UniProt O35659); test: β-arrestin-2 recruitment (NanoBiT), mouse GLP-1R; type: cell-based
T1 sequence (O35659 22-463): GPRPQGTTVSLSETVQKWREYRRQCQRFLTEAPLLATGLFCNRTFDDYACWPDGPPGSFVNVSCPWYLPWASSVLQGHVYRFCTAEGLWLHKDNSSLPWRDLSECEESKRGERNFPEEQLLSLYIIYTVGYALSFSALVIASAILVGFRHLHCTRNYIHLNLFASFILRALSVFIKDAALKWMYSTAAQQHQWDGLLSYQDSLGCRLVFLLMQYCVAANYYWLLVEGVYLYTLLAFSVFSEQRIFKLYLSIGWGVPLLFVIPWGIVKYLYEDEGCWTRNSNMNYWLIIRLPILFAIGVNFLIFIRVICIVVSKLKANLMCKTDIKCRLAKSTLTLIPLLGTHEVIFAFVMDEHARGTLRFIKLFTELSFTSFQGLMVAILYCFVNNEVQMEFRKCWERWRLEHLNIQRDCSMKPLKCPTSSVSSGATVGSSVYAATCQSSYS
Method: (§1) To measure GLP-1R and GIPR-mediated β-arrestin recruitment, we utilized Promega's NanoBiT® technology or NanoLuc® Binary Technology. The NanoLuc luciferase is split into two subunits, called LgBiT and SmBIT, which are expressed in HEK293 cells as fusion proteins at the C-terminus of GLP-IR or GIPR and the N-terminus of β-arrestin-2. […] The next day, the media was removed and replaced with […] 1:100 dilution of Nano-Glo® Live Cell Substrate in Opti-MEM™ and equilibrated to room temperature for ten minutes. Background luminescence was measured before 10 nL compound was added using an ECHO Acoustic Liquid Handler.
(§2) To measure GLP-1R and GIPR-mediated β-arrestin recruitment, Promega's NanoBiT® technology or NanoLuc® Binary Technology were utilized. Both allow for the detection and quantification of protein: protein interactions in live cells (Samms et al., Trends Endocrinol Metab 31:410-21). The NanoLuc luciferase is split into two subunits, called LgBiT and SmBIT, which are expressed in HEK293 cells as fusion proteins at the C-terminus of GLP-1R or GIPR and the N-terminus of β-arrestin-2, respectively. […] The next day, media was removed and replaced with 10 μL 1:100 dilution of Nano-Glo® Live Cell Substrate in Optimem and equilibrated to room temperature for ten minutes. Background luminescence was measured before 10 nL compound was added using an ECHO Acoustic Liquid Handler. Luminescence was measured at 1.5-minute intervals for 30 minutes.

mouse GIPR [2] = biological target: T2, mouse GIPR (Mus musculus, UniProt Q0P543); test: β-arrestin-2 recruitment (NanoBiT), mouse GIPR; type: cell-based
T2 sequence (Q0P543 19-460): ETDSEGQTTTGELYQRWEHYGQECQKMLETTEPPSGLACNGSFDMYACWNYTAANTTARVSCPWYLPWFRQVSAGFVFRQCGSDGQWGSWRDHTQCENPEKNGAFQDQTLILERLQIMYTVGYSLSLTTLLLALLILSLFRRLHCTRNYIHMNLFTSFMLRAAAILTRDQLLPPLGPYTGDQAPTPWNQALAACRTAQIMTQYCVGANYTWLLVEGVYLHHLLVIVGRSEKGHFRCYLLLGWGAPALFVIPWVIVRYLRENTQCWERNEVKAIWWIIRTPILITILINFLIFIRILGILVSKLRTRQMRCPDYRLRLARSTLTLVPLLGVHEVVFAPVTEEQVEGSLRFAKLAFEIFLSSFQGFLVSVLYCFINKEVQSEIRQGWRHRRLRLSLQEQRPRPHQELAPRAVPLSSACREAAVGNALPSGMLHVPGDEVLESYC
Method: as §1, §2

human GIPR = biological target: T3, human GIPR (Homo sapiens, UniProt P48546); test: receptor internalization (Nano-Glo HiBiT), human GIPR; type: cell-based
T3 sequence (P48546 22-466): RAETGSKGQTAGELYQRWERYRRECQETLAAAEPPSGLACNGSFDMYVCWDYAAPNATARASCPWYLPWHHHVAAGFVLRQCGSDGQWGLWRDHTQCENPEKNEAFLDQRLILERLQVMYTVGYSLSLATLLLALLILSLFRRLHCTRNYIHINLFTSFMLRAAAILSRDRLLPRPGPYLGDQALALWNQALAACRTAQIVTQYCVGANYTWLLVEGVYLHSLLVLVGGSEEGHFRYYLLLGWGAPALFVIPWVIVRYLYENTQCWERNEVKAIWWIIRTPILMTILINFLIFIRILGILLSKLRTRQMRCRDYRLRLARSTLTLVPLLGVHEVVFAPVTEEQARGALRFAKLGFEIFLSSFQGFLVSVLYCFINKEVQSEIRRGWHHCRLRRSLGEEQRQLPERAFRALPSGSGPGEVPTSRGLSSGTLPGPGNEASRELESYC
Method: (§3) GLP-1R and GIPR internalization were measured using Promega's Nano-Glo® HiBit extracellular detection system (Promega Corporation; Madison, WI). Hek293 cells were transiently transfected with HiBiT-tagged hGLP-1R or hGIPR plasmids (Promega Corporation; Madison, WI). Cells were lifted using the TrypLE express enzyme (ThermoFisher Scientific) and plated at 80,000-100,000 cells per well in 96 well plates. Cells were then treated with Nano-Glo HibiT extracellular buffer containing LgBiT protein (1:100), and the Nano-Glo HiBiT extracellular substrate (1:50).
(§4) GLP-1R and GIPR internalization was measured using Promega's Nano-Glo® HiBit extracellular detection system (Promega Corporation; Madison, WI). HEK293 cells were transiently transfected with low quantities of HiBiT-tagged hGLP-1R or hGIPR plasmids (Promega Corporation; Madison, WI). The next day, cells were lifted using TrypLE express enzyme (ThermoFisher Scientific) and plated at 80,000-100,000 cells per well in 96 well plates.

human GLP-1R = human GLP-1R (Homo sapiens, UniProt P43220); test: receptor internalization (Nano-Glo HiBiT), human GLP-1R; type: cell-based; parameters: host or cells: HEK293
Chain of human GLP-1R (P43220 24-463): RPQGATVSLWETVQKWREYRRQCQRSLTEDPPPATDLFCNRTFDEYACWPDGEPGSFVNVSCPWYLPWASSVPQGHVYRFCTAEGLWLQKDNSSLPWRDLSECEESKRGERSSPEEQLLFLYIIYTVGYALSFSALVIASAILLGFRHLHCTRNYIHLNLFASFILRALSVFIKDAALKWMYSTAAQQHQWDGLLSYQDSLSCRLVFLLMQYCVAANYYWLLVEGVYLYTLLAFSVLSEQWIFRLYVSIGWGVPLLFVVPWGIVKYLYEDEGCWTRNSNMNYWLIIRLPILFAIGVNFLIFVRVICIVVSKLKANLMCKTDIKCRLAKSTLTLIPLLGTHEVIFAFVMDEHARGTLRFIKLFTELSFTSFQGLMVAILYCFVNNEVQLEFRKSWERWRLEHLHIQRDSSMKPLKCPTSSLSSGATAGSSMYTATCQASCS
Method: as §3, §4

mouse GLP-1R [3] = biological target: T1, mouse GLP-1R; test: cAMP accumulation (HitHunter cAMP assay), mouse GLP-1R U2OS cells
mouse GIPR [4] = biological target: T2, mouse GIPR; test: cAMP accumulation (HitHunter cAMP assay), mouse GIPR CHO-K1 cells

Structure (SMILES)	EC50 (mouse GLP-1R [1]; Table 17, read-out: mGLP-1R β-arrestin-2 EC50) [nM]	Emax (mouse GLP-1R [1]; read-out: mGLP-1R β-arrestin-2 % Emax, Table 17) [%]	Emax (mouse GIPR [2]; read-out: mGIPR β-arrestin-2 % Emax, Table 17) [%]	Emax (human GIPR; Table 17, read-out: hGIPR Internalization % Emax) [%]	Emax (human GLP-1R; Table 17, read-out: hGLP-1R Internalization % Emax) [%]	Emax (mouse GLP-1R [3]; U2OS, read-out: mGLP-1R cAMP (-alb) % Emax) [%]	Emax (mouse GIPR [4]; CHO-K1, read-out: mGIPR cAMP (-alb) % Emax) [%]	recruitment of β-arrestin-2 to mouse GLP-1R (mouse GLP-1R [1]) [%]	native ligand mediated recruitment of β-arrestin-2 at GLP-1R (in words) (mouse GLP-1R [1]; antagonist mode vs GLP-1)	native ligand mediated recruitment of β-arrestin-2 at GIPR (in words) (mouse GIPR [2]; antagonist mode vs GIP)	recruitment of β-arrestin-2 to mouse GIPR (mouse GIPR [2]; vs GIP) [%]	human GIPR surface expression (in words) (human GIPR)	GLP-1R expression after two hours of exposure (in words) (human GLP-1R)	agonist type for cAMP accumulation at mouse GLP-1R (in words) (mouse GLP-1R [3])	times less potent than Liraglutide (mouse GLP-1R [3]; cAMP, mouse GLP-1R) [times]	times less potent than native ligand GLP-1 (mouse GLP-1R [3]; cAMP, mouse GLP-1R) [times]	agonist type for cAMP accumulation at mouse GIPR (in words) (mouse GIPR [4])	times lower potency than GIP (mouse GIPR [4]; cAMP, mouse GIPR) [times]
CCCCCCCCCCCCCCCC(=O)N[C@@H](CCC(=O)NCCCC[C@H](NC(=O)[C@H](CO)NC(=O)[C@@H]1CCCN1C(=O)[C@@H]1CCCN1C(=O)[C@@H]1CCCN1C(=O)[C@H](C)NC(=O)CNC(=O)[C@H](CO)NC(=O)[C@H](CO)NC(=O)[C@@H]1CCCN1C(=O)CNC(=O)CNC(=O)[C@H](C)NC(=O)[C@H](CC(C)C)NC(=O)[C@H](CC(C)C)NC(=O)[C@H](Cc1c[nH]c2ccccc12)NC(=O)[C@H](CC(N)=O)NC(=O)[C@@H](NC(=O)[C@H](Cc1ccccc1)NC(=O)[C@H](CCC(=O)O)NC(=O)C(C)(C)NC(=O)[C@H](C)NC(=O)[C@H](C)NC(=O)[C@H](CCC(N)=O)NC(=O)[C@H](CCCCN)NC(=O)[C@H](CC(=O)O)NC(=O)[C@H](CC(C)C)NC(=O)[C@H](Cc1ccc(O)cc1)NC(=O)[C@@H](NC(=O)[C@H](CO)NC(=O)[C@H](Cc1ccc(O)cc1)NC(=O)[C@H](CC(=O)O)NC(=O)[C@H](CO)NC(=O)[C@@H](NC(=O)[C@H](Cc1ccccc1)NC(=O)[C@@H](NC(=O)CNC(=O)[C@H](CCC(=O)O)NC(=O)CSCC(=O)NCCN1CCCCC1=O)[C@@H](C)O)[C@@H](C)O)[C@@H](C)CC)C(C)C)C(N)=O)C(=O)O [CT-868]	21	4.69	-1.92	-11	-13	95	36											
CCCCCCCCCCCCCCCC(=O)N[C@@H](CCC(=O)NCCCC[C@H](NC(=O)[C@H](CO)NC(=O)[C@@H]1CCCN1C(=O)[C@@H]1CCCN1C(=O)[C@@H]1CCCN1C(=O)[C@H](C)NC(=O)CNC(=O)[C@H](CO)NC(=O)[C@H](CO)NC(=O)[C@@H]1CCCN1C(=O)CNC(=O)CNC(=O)[C@H](C)NC(=O)[C@H](CC(C)C)NC(=O)[C@H](CC(C)C)NC(=O)[C@H](Cc1c[nH]c2ccccc12)NC(=O)[C@H](CC(N)=O)NC(=O)[C@@H](NC(=O)[C@H](Cc1ccccc1)NC(=O)[C@H](CCC(=O)O)NC(=O)C(C)(C)NC(=O)[C@H](C)NC(=O)[C@H](C)NC(=O)[C@H](CCC(N)=O)NC(=O)[C@H](CCCCN)NC(=O)[C@H](CC(=O)O)NC(=O)[C@H](CC(C)C)NC(=O)[C@H](Cc1ccc(O)cc1)NC(=O)[C@@H](NC(=O)[C@H](CO)NC(=O)[C@H](Cc1ccc(O)cc1)NC(=O)[C@H](CC(=O)O)NC(=O)[C@H](CO)NC(=O)[C@@H](NC(=O)[C@H](Cc1ccccc1)NC(=O)[C@@H](NC(=O)CNC(=O)[C@H](CCC(=O)O)NC(=O)CSCC(=O)NCCN1C(=O)CSC1=O)[C@@H](C)O)[C@@H](C)O)[C@@H](C)CC)C(C)C)C(N)=O)C(=O)O [CT-859]								< 5	inhibited	inhibited	< 5	stimulating greater surface expression than vehicle	higher versus vehicle-treated cells	full agonist	12	113	partial agonist	48
